These results are taken from ChEMBL document CHEMBL1811818, “Arthrobotrisins A-C, oligosporons from the nematode-trapping fungus Arthrobotrys oligospora” (2011).

Molecules are shown by their SMILES. Activity calls are given as the source filed them. The calls are words filed in the database; no cut-off is given here.

For experiment [1], the system named is Bacillus sp. Kind of experiment: Antibacterial activity against Bacillus sp. 3.38 at 150 ug by agar diffusion assay. As to conditions: Bacillus sp. (in: firmicutes), read-out: IZ. It counts as functional.
Experiment [2] relates to Bacillus sp. Kind of experiment: Antibacterial activity against Bacillus sp. 3.38 at 300 ug by agar diffusion assay. The class given is functional. As to conditions: Bacillus sp. (in: firmicutes), read-out: IZ.
A further experiment relates to Panagrellus redivivus. The experiment in a line: Nematicidal activity against Panagrellus redivivus assessed as effect on larval development at 200 ug/mL after 48 hrs. It counts as functional, organism-based.
The subject of experiment [3] is Bacillus subtilis. The experiment in a line: Antibacterial activity against Bacillus subtilis 3.34 at 25 ug by agar diffusion assay. The class given is functional. As to conditions: read-out: IZ. (In general: A growth-free zone around the sample is the usual read-out of agar diffusion tests.)
For experiment [4], the system named is Bacillus subtilis. The experiment in a line: Antibacterial activity against Bacillus subtilis 3.34 at 50 ug by agar diffusion assay. It counts as functional. The settings on record: read-out: IZ.
The test system of experiment [5] is Bacillus subtilis. The experiment in a line: Antibacterial activity against Bacillus subtilis 3.34 assessed as by agar diffusion assay. It counts as functional.
In experiment [6] the test system is Bacillus sp. Kind of experiment: Antibacterial activity against Bacillus sp. 3.38 at 50 ug by agar diffusion assay. The settings on record: Bacillus sp. (in: firmicutes), read-out: DIZ. The class given is functional.
The test system of a further experiment is Staphylococcus aureus. Kind of experiment: Antibacterial activity against Staphylococcus aureus 3.17 at 50 ug by agar diffusion assay. It counts as functional. The settings on record: read-out: DIZ.
Experiment [7] concerns Bacillus subtilis. The experiment in a line: Antibacterial activity against Bacillus subtilis 3.34 at 10 ug by agar diffusion assay. The class given is functional. The settings on record: read-out: DIZ.

As to `CC(C)=CCC/C(C)=C/C[C@H](O)/C(C)=C/[C@H](O)[C@]12O[C@H]1[C@H](O)C(CO)=C[C@@H]2O` [ARTHROBOTRISIN B], in the experiment with Bacillus sp. [1], the zone of inhibition at 150 µg/disc was 4.7 mm. Further, the zone of inhibition at 300 µg/disc in the experiment with Bacillus sp. [2] amounted to 8 mm. Moreover, the result in the experiment with Panagrellus redivivus was inactive.
Turning to `CC(C)=CCC/C(C)=C/C[C@H](O)/C(C)=C/[C@H](O)[C@]12O[C@H]1[C@@H](O)C(CO)=C[C@@H]2O` [ARTHROBOTRISIN C], in the experiment with Bacillus subtilis [3], the zone of inhibition at 25 µg/disc is 14.2 mm. For the same compound, the zone of inhibition at 50 µg/disc in the experiment on Bacillus subtilis [4] was found to be 19.4 mm; in the experiment with Bacillus sp. [6], 9.1 mm; in the experiment with Staphylococcus aureus it was 7 mm. The MIC with Bacillus subtilis [5] turned out to be 5 µg. For the same compound, the result with Panagrellus redivivus was inactive.
For `O=C(N[C@H](CO)[C@H](O)c1ccc([N+](=O)[O-])cc1)C(Cl)Cl` [CHLORAMPHENICOL], the zone of inhibition at 10 µg/disc with Bacillus subtilis [7] came to 36.3 mm.
